According to patent publication US5604234A, “Substituted thiol macrolactam immunomodulators” (Abbott Laboratories, priority 1995, dated 1997):

tested on: human mixed lymphocyte reaction (MLR); assay: human mixed lymphocyte reaction (MLR), serum free variation; assay type: cell-based; conditions: Homo sapiens, Lymphocyte, serum-free medium AIM V, Table 3
Experimental: In vitro Assay of Biological Activity (Serum Free MLR)
The in viitro immunosuppressant activity of the compounds of the present invention can also be determined using a variation of the human mixed lymphocyte reaction (MLR) assay described by Kino, T. et al. in Transplantation Proceedings, XIX(5):36-39, Suppl. 6 (1987). In this assay, the cell culture was performed in a serum-free medium, AIM V (GibcoBRL Life Technologies, Grand Island, N.Y.), instead of the usual RPMI 1640 plus 10% heat-inactivated fetal bovine serum medium. The final cell concentrations of the responder and stimulator peripheral blood mononuclear cells were, respectively, 5×10^5/mL and 2×10^6/mL of cells pooled from four donors.

Row | Compound | IC50 [nM]
1 | CC[C@@H]1/C=C(\C)C[C@H](C)C[C@H](OC)[C@H]2O[C@@](O)(C(=O)C(=O)N3CCCC[C@H]3C(=O)O[C@H](/C(C)=C/[C@@H]3CC[C@H]([S+]([O-])CC(=O)OCc4ccccc4)[C@H](OC)C3)[C@H](C)[C@@H](O)CC1=O)[C@H](C)C[C@@H]2OC (single isomer, unassigned) [Example 54] | 8.7
2 | CC[C@@H]1/C=C(\C)C[C@H](C)C[C@H](OC)[C@H]2O[C@@](O)(C(=O)C(=O)N3CCCC[C@H]3C(=O)O[C@H](/C(C)=C/[C@@H]3CC[C@H]([S+]([O-])CCC(=O)OCc4ccccc4)[C@H](OC)C3)[C@H](C)[C@@H](O)CC1=O)[C@H](C)C[C@@H]2OC (single isomer, unassigned) [Example 62] | 29.2
3 | CC[C@@H]1/C=C(\C)C[C@H](C)C[C@H](OC)[C@H]2O[C@@](O)(C(=O)C(=O)N3CCCC[C@H]3C(=O)O[C@H](/C(C)=C/[C@@H]3CC[C@H]([S+]([O-])CCC(=O)OC(C)C)[C@H](OC)C3)[C@H](C)[C@@H](O)CC1=O)[C@H](C)C[C@@H]2OC (single isomer, unassigned) [Example 65] | 32
4 | CCC(CC)OC(=O)CC[S+]([O-])[C@H]1CC[C@@H](/C=C(\C)[C@H]2OC(=O)[C@@H]3CCCCN3C(=O)C(=O)[C@]3(O)O[C@H]([C@@H](OC)C[C@@H](C)C/C(C)=C/[C@@H](CC)C(=O)C[C@H](O)[C@H]2C)[C@@H](OC)C[C@H]3C)C[C@H]1OC (single isomer, unassigned) [Example 67] | 25.6
5 | CC[C@@H]1/C=C(\C)C[C@H](C)C[C@H](OC)[C@H]2O[C@@](O)(C(=O)C(=O)N3CCCC[C@H]3C(=O)O[C@H](/C(C)=C/[C@@H]3CC[C@H]([S+]([O-])CCC(=O)N(C)O)[C@H](OC)C3)[C@H](C)[C@@H](O)CC1=O)[C@H](C)C[C@@H]2OC (single isomer, unassigned) [Example 69] | 6.24
6 | CC[C@@H]1/C=C(\C)C[C@H](C)C[C@H](OC)[C@H]2O[C@@](O)(C(=O)C(=O)N3CCCC[C@H]3C(=O)O[C@H](/C(C)=C/[C@@H]3CC[C@H]([S+]([O-])CC(=O)O)[C@H](OC)C3)[C@H](C)[C@@H](O)CC1=O)[C@H](C)C[C@@H]2OC (single isomer, unassigned) [Example 73] | 9.6
7 | CC[C@@H]1/C=C(\C)C[C@H](C)C[C@H](OC)[C@H]2O[C@@](O)(C(=O)C(=O)N3CCCC[C@H]3C(=O)O[C@H](/C(C)=C/[C@@H]3CC[C@H](SC(=O)C(C)NC(C)=O)[C@H](OC)C3)[C@H](C)[C@@H](O)CC1=O)[C@H](C)C[C@@H]2OC (single isomer, unassigned) [Example 117A] | 2.4
8 | CCC1C=C(C)CC(C)CC(OC)C2OC(O)(C(=O)C(=O)N3CCCCC3C(=O)OC(C(C)=CC3CCC(SC(C)=O)C(OC)C3)C(C)C(O)CC1=O)C(C)CC2OC (stereo not shown) [Example 2] | 0.16
9 | CCC1C=C(C)CC(C)CC(OC)C2OC(O)(C(=O)C(=O)N3CCCCC3C(=O)OC(C(C)=CC3CCC(S)C(OC)C3)C(C)C(O)CC1=O)C(C)CC2OC (stereo not drawn) [Example 8A, 32-epi-Thiol Ascomycin] | 0.75
10 | CCC1C=C(C)CC(C)CC(OC)C2OC(O)(C(=O)C(=O)N3CCCCC3C(=O)OC(C(C)=CC3CCC(SCCC(=O)Oc4ccccc4)C(OC)C3)C(C)C(O)CC1=O)C(C)CC2OC (stereo not shown) [Example 8] | 1.8
11 | CCC1C=C(C)CC(C)CC(OC)C2OC(O)(C(=O)C(=O)N3CCCCC3C(=O)OC(C(C)=CC3CCC(SCCC(=O)OC4CCCCC4)C(OC)C3)C(C)C(O)CC1=O)C(C)CC2OC (stereo not shown) [Example 14] | 6.2
12 | CCC1C=C(C)CC(C)CC(OC)C2OC(O)(C(=O)C(=O)N3CCCCC3C(=O)OC(C(C)=CC3CCC(SCCC(=O)N4CCOCC4)C(OC)C3)C(C)C(O)CC1=O)C(C)CC2OC (stereo not shown) [Example 23] | 0.04
13 | CCC1C=C(C)CC(C)CC(OC)C2OC(O)(C(=O)C(=O)N3CCCCC3C(=O)OC(C(C)=CC3CCC(SCCC(=O)N(O)C(C)C)C(OC)C3)C(C)C(O)CC1=O)C(C)CC2OC (stereo not shown) [Example 26] | 7
14 | CCC1C=C(C)CC(C)CC(OC)C2OC(O)(C(=O)C(=O)N3CCCCC3C(=O)OC(C(C)=CC3CCC(SCC(=O)OCc4ccccc4)C(OC)C3)C(C)C(O)CC1=O)C(C)CC2OC (stereo not shown) [Example 27] | 3.7
15 | CCC1C=C(C)CC(C)CC(OC)C2OC(O)(C(=O)C(=O)N3CCCCC3C(=O)OC(C(C)=CC3CCC(SCC(=O)OC(C)(C)C)C(OC)C3)C(C)C(O)CC1=O)C(C)CC2OC (stereo not shown) [Example 29] | 1.8
16 | CCC1C=C(C)CC(C)CC(OC)C2OC(O)(C(=O)C(=O)N3CCCCC3C(=O)OC(C(C)=CC3CCC(SCC(=O)O)C(OC)C3)C(C)C(O)CC1=O)C(C)CC2OC (stereo not shown) [Example 30] | 9.1
17 | CCC1C=C(C)CC(C)CC(OC)C2OC(O)(C(=O)C(=O)N3CCCCC3C(=O)OC(C(C)=CC3CCC(SCC(=O)OC(C)C)C(OC)C3)C(C)C(O)CC1=O)C(C)CC2OC (stereo not shown) [Example 32] | 6.5
18 | CCC1C=C(C)CC(C)CC(OC)C2OC(O)(C(=O)C(=O)N3CCCCC3C(=O)OC(C(C)=CC3CCC(SCC(=O)OCC(F)(F)F)C(OC)C3)C(C)C(O)CC1=O)C(C)CC2OC (stereo not shown) [Example 33] | 47
19 | CCC1C=C(C)CC(C)CC(OC)C2OC(O)(C(=O)C(=O)N3CCCCC3C(=O)OC(C(C)=CC3CCC(SCC(=O)OCCN(C)C)C(OC)C3)C(C)C(O)CC1=O)C(C)CC2OC (stereo not shown) [Example 36] | 24.2
20 | CCC1C=C(C)CC(C)CC(OC)C2OC(O)(C(=O)C(=O)N3CCCCC3C(=O)OC(C(C)=CC3CCC(SCC(=O)OCCOCc4ccccc4)C(OC)C3)C(C)C(O)CC1=O)C(C)CC2OC (stereo not shown) [Example 37] | 16.4
21 | CCC1C=C(C)CC(C)CC(OC)C2OC(O)(C(=O)C(=O)N3CCCCC3C(=O)OC(C(C)=CC3CCC(SCC(=O)NO)C(OC)C3)C(C)C(O)CC1=O)C(C)CC2OC (stereo not shown) [Example 38] | 7.5

Second part, the molecule after the results:

Row | IC50 [nM] | Compound
22 | 8.9 | CCC1C=C(C)CC(C)CC(OC)C2OC(O)(C(=O)C(=O)N3CCCCC3C(=O)OC(C(C)=CC3CCC(SCCC(=O)OC)C(OC)C3)C(C)C(O)CC1=O)C(C)CC2OC (stereo not shown) [Example 9]
23 | 3.2 | CCOC(=O)CCSC1CCC(C=C(C)C2OC(=O)C3CCCCN3C(=O)C(=O)C3(O)OC(C(OC)CC(C)CC(C)=CC(CC)C(=O)CC(O)C2C)C(OC)CC3C)CC1OC (stereo not shown) [Example 10]
24 | 2.1 | CCC1C=C(C)CC(C)CC(OC)C2OC(O)(C(=O)C(=O)N3CCCCC3C(=O)OC(C(C)=CC3CCC(SCCC(=O)OCCOC)C(OC)C3)C(C)C(O)CC1=O)C(C)CC2OC (stereo not shown) [Example 11]
25 | 1.7 | CCC1C=C(C)CC(C)CC(OC)C2OC(O)(C(=O)C(=O)N3CCCCC3C(=O)OC(C(C)=CC3CCC(SCCC(=O)OCC(F)(F)F)C(OC)C3)C(C)C(O)CC1=O)C(C)CC2OC (stereo not shown) [Example 12]
26 | 3.1 | CCC1C=C(C)CC(C)CC(OC)C2OC(O)(C(=O)C(=O)N3CCCCC3C(=O)OC(C(C)=CC3CCC(SCCC(=O)OCCO)C(OC)C3)C(C)C(O)CC1=O)C(C)CC2OC (stereo not shown) [Example 13]
27 | 1.5 | CCC1C=C(C)CC(C)CC(OC)C2OC(O)(C(=O)C(=O)N3CCCCC3C(=O)OC(C(C)=CC3CCC(SCCC(=O)OC(C)(C)C)C(OC)C3)C(C)C(O)CC1=O)C(C)CC2OC (stereo not shown) [Example 15]
28 | 2.2 | CCC1C=C(C)CC(C)CC(OC)C2OC(O)(C(=O)C(=O)N3CCCCC3C(=O)OC(C(C)=CC3CCC(SCCC(=O)OCCN(C)C)C(OC)C3)C(C)C(O)CC1=O)C(C)CC2OC (stereo not shown) [Example 16]
29 | 31.2 | CCC1C=C(C)CC(C)CC(OC)C2OC(O)(C(=O)C(=O)N3CCCCC3C(=O)OC(C(C)=CC3CCC(SCCC(=O)OCCCS(=O)(=O)O)C(OC)C3)C(C)C(O)CC1=O)C(C)CC2OC (stereo not shown) [Example 17]
30 | 2.9 | CCC1C=C(C)CC(C)CC(OC)C2OC(O)(C(=O)C(=O)N3CCCCC3C(=O)OC(C(C)=CC3CCC(SCCC(=O)O)C(OC)C3)C(C)C(O)CC1=O)C(C)CC2OC (stereo not shown) [Example 19]
31 | 12.7 | CCC1C=C(C)CC(C)CC(OC)C2OC(O)(C(=O)C(=O)N3CCCCC3C(=O)OC(C(C)=CC3CCC(SCCC(=O)OC(C)C)C(OC)C3)C(C)C(O)CC1=O)C(C)CC2OC (stereo not shown) [Example 20]
32 | 5.4 | CCC(CC)OC(=O)CCSC1CCC(C=C(C)C2OC(=O)C3CCCCN3C(=O)C(=O)C3(O)OC(C(OC)CC(C)CC(C)=CC(CC)C(=O)CC(O)C2C)C(OC)CC3C)CC1OC (stereo not shown) [Example 21]
33 | 0.02 | CCC1C=C(C)CC(C)CC(OC)C2OC(O)(C(=O)C(=O)N3CCCCC3C(=O)OC(C(C)=CC3CCC(SCCC(N)=O)C(OC)C3)C(C)C(O)CC1=O)C(C)CC2OC (stereo not shown) [Example 22]
34 | 0.8 | CCC1C=C(C)CC(C)CC(OC)C2OC(O)(C(=O)C(=O)N3CCCCC3C(=O)OC(C(C)=CC3CCC(SCCC(=O)NO)C(OC)C3)C(C)C(O)CC1=O)C(C)CC2OC (stereo not shown) [Example 24]
35 | 0.2 | CCC1C=C(C)CC(C)CC(OC)C2OC(O)(C(=O)C(=O)N3CCCCC3C(=O)OC(C(C)=CC3CCC(SCCC(=O)N(C)O)C(OC)C3)C(C)C(O)CC1=O)C(C)CC2OC (stereo not shown) [Example 25]
36 | 1.6 | CCC1C=C(C)CC(C)CC(OC)C2OC(O)(C(=O)C(=O)N3CCCCC3C(=O)OC(C(C)=CC3CCC(SCC(=O)OC)C(OC)C3)C(C)C(O)CC1=O)C(C)CC2OC (stereo not shown) [Example 28]
37 | 8.2 | CCOC(=O)CSC1CCC(C=C(C)C2OC(=O)C3CCCCN3C(=O)C(=O)C3(O)OC(C(OC)CC(C)CC(C)=CC(CC)C(=O)CC(O)C2C)C(OC)CC3C)CC1OC (stereo not shown) [Example 31]
38 | 60.8 | CCC1C=C(C)CC(C)CC(OC)C2OC(O)(C(=O)C(=O)N3CCCCC3C(=O)OC(C(C)=CC3CCC(SCC(=O)OCCO)C(OC)C3)C(C)C(O)CC1=O)C(C)CC2OC (stereo not shown) [Example 34]
39 | 27.1 | CCC1C=C(C)CC(C)CC(OC)C2OC(O)(C(=O)C(=O)N3CCCCC3C(=O)OC(C(C)=CC3CCC(SCC(=O)OCCOC)C(OC)C3)C(C)C(O)CC1=O)C(C)CC2OC (stereo not shown) [Example 35]

same assay, conditions: serum-free medium AIM V, Table 3

Row | IC50 [nM] | Compound
40 | 2.5 | CC[C@@H]1/C=C(\C)C[C@H](C)C[C@H](OC)[C@H]2O[C@@](O)(C(=O)C(=O)N3CCCC[C@H]3C(=O)O[C@H](/C(C)=C/[C@@H]3CC[C@H](SC(=O)C(C)NC(C)=O)[C@H](OC)C3)[C@H](C)[C@@H](O)CC1=O)[C@H](C)C[C@@H]2OC (single isomer, unassigned) [Example 117B]
